The results in this text go back to patent US10745352B2, “Dual function molecules for histone deacetylase inhibition and ataxia telangiectasia mutated activation and methods of use thereof” (Shuttle Pharmaceuticals, Inc., priority 2015, dated 2020).

Experiment [1] deals with normal prostate epithelial (RWPE1) cells vs prostate cancer (PC3) cells. Kind of experiment: MTT cytotoxicity assay, normal prostate epithelial cells versus prostate cancer cells. The experiment is classed as cell-based. How it is done: Certain compounds of the invention were tested in an MTT cytotoxicity assay against a breast cancer cell line (MCF7), prostate cancer cell line (PC3), cervical cancer cell line (CasKi), and head and neck cancer cell line (SQ20B). In the breast and prostate cancer MTT assays, certain compounds of the invention were also tested against normal breast (MCF10A) and prostate (RWPE1) epithelial tissues.
Specifically, the compounds tested included SP-1-161, SP-1-229, and SP-1-303. Suberoylanilide hydroxamic acid (SAHA), a known HDAC inhibitor, was also tested in the assay as control.
For orientation: Formazan colour is commonly taken as a measure of viable cells.

Experiment [2] relates to breast cancer cells (MCF7 cells). Kind of experiment: MTT cytotoxicity assay, breast cancer cells. The experiment is classed as cell-based. To be noted: Homo sapiens, cell line not named in the sentence (FIG. 9: MCF7 and 184A1). How it is done:
Certain compounds of the invention were tested in both an MTT cytotoxicity assay and clonogenic cytotoxicity assay against breast cancer cells (MCF7 cells) and normal breast tissue cells (184A1 cells) to determine the cytotoxic effect of such cells as a function of concentration.
Specifically, the compounds tested included: N-(6-(hydroxyamino)-6-oxohexyl)-3-methyl-1H-indole-2-carboxamide (SP-1-161); -hydroxy-N^6-(2-(2-methyl-1H-indol-3-yl)ethyl)octanediamide (SP-1-163); (S)—N-(6-(hydroxyamino)-6-oxohexyl)-1-tosylindoline-2-carboxamide (SP-1-169); and (S)-1-((5-(dimethylamino)naphthalene-1-yl)sulfonyl)-N-(6-(hydroxyamino)-6-oxoheyl)indoline-carboxamide (SP-1-171).

In a further experiment the test system is pan-HDACs. Kind of experiment: Pan-HDAC assay (Fluor-de-Lys fluorometric kit, HeLa Nuclear Extract). The experiment is classed as biochemical. Conditions: values are average EC50, read-out: EC50 against pan-HDACs. As to the method: Certain compounds of the invention were tested in a pan-HDAC assay to determine the ability of such compounds to inhibit HDAC protein. Specifically, the compounds tested included: N-(6-(hydroxyamino)-6-oxohexyl)-3-methyl-1H-indole-2-carboxamide (SP-1-161) (FIG. 8A); N^1-hydroxy-N^6-(2-(2-methyl-1H-indol-3-yl)ethyl)octanediamide (SP-1-163) (FIG. 8A); (S)—N-(6-(hydroxyamino)-6-oxohexyl)-1-tosylindoline-2-carboxamide (SP-1-169) (FIG. 8B); and (S)-1-((5-(dimethylamino)naphthalene-1-yl)sulfonyl)-N-(6-(hydroxyamino)-6-oxoheyl)indoline-carboxamide (SP-1-171) (FIG. 8B).
The Pan HDAC assay was performed as follows:
Materials: Enzo Fluor-de-Lys HDAC fluorometric activity assay kit; 360 nm excitation 460 nm emission Plate Reader; Disposable pipettes; Pipet-aid; Pipette tips; Micro-pipetter; DMSO; Sterile micro-tubes and conical tubes; and Micro-centrifuge.
Test compounds and control preparation: All test compounds' stock solutions were made in 100% DMSO. Test compound dilutions were made in HDAC Assay buffer with a final concentration of DMSO less than or equal to 1%. Vehicle control was HDAC Assay buffer with 1% DMSO.
The reagents for the assay were prepared as follows:
1. All kit components were defrosted and these, and all dilutions described below, were kept on ice until use. All undiluted kit components are stable for several hours on ice.
2. A sufficient amount of HeLa Nuclear Extract (BML-KI140) or other HDAC source diluted in Assay Buffer (BML-KI143) was prepared to provide for the assays that were performed (# of wells×15 μl). A 30-fold dilution of the HeLa Extract means that 15 μl contains 0.5 μl of the undiluted Extract, an appropriate amount to use per well.
3. Dilution(s) of Trichostatin A and/or Test Inhibitors were prepared in Assay Buffer (BML-KI143). Since 10 μl were used per well, and since the final volume of the HDAC reaction was 50 μl, these inhibitor dilutions were 5× their final concentration.
4. Dilution(s) of the Fluor de Lys® Substrate (BML-KI104; 50 mM) were prepared in Assay Buffer (BML-KI143) that were 2× the desired final concentration(s). For inhibitor screening, substrate concentrations at or below the Km are recommended. Twenty-five μL were used per well. Initial dilutions of 25-fold or greater in Assay Buffer (2.0 mM or less) yielded stable solutions (see NOTE on freezing and thawing below). Rapid mixing and dilution into room temperature buffer helped to prevent precipitation at high substrate concentration. NOTE: Freezing/thawing of Fluor de Lys® Substrate solutions in Assay Buffer may cause precipitation of the Substrate. Dilute only amount necessary for one day's experiment.
5. Shortly before use (<30 min.), sufficient Fluor de Lys® Developer was prepared for the assays to be performed (50 μl per well). […]

In experiment [3] the test system is healthy breast epithelial cells (184A1 cells). As to the kind of experiment: Radiation clonogenic survival, normal breast epithelial cells. The experiment is classed as cell-based. To be noted: compound at IC50 concentration for 24 h, then gamma radiation; compared with DIM. How it is done:
N-(6-(hydroxyamino)-6-oxohexyl)-3-methyl-1H-indole-2-carboxamide (SP-1-161) was tested against DIM in a radiation clonogenic survival study with healthy breast epithelial cells (184A1 cells) (FIG. 11A) and breast cancer cells (MCF7 cells) (FIG. 11B). After treatment with the compounds of the invention for 24 hours, the cells were exposed to graded doses of gamma radiation.
Logarithmically growing cells were seeded into T-25 flasks at various densities to yield approximately 50-100 colonies/flask. After incubation for 24 h at 37° C., cells were treated or not with the compound at the IC50 concentration for 24 h followed by sham or irradiation at room temperature using a Mark-30 irradiator with a 137-Cs source at a fixed dose rate of 2.27 Gy/min. After 10-14 days, cells were fixed and stained with crystal violet, and colonies of more than 50 cells were counted. The surviving fractions of the treated cells were normalized to the plating efficiencies of untreated controls. Radiation survival curves were fitted by computer to the single-hit, multitarget and the linear-quadratic models.
The radiation sensitivity of cells is defined by the terminal slope of the radiation survival curve, which is referred to as D0. The steeper the slope, the smaller is the value of D0, and thus the more radiation sensitive the respective cells. […]

By IC50 is commonly meant the concentration at which inhibition is half-maximal. Low values mean higher potency, high ones lower potency. A word on the EC50: it is the concentration that produces a half-maximal response. Take `Cc1c(C(=O)NCCCCCC(=O)NO)[nH]c2ccccc12` [SP-1-161, N-(6-(hydroxyamino)-6-oxohexyl)-3-methyl-1H-indole-2-carboxamide]: in experiment [1], the “fold less toxic in normal prostate epithelial (RWPE1) cells than in prostate cancer (PC3) cells” value is reported as 15 fold. Further, the IC50 in experiment [2] came to 416 nM. For the same compound, the EC50 in the experiment with pan-HDACs is 29.7 nM. The “protection of normal cells from radiation (184A1)” value in experiment [3] is “protected normal cells from radiation-mediated killing”.
